By IC50 is commonly meant the concentration needed to halve the response being measured. The low end stands for inhibition by little substance, the high end for a need for much substance.

Results on three compounds are retold here after BindingDB's records for patent US20240010684 (Bayer Aktiengesellschaft, 2024).

In test [1] the target is Mannan-binding lectin serine protease 2 (Homo sapiens, UniProt O00187). The test is described as follows: Biochemical Human MASP2 Assay. How it is done: Recombinant human MASP2 enzyme produced in the HEK 293 cells was diluted in the reaction buffer (50 mM HEPES pH 8,0; 100 mM NaCl; 0,01% CHAPS; 0.5 mM Gluthathione) to the concentration of 20 nM and 25 μl was transferred into each single well of 384-well white microtiter plate (Greiner Bio One 781075). 1 μl of the inhibitor compound solution (dissolved in DMSO, at the corresponding concentration) or pure DMSO as a control was added to the same wells. The enzymatic reaction was initiated by addition of 25 μl of 60 μM solution of the FRET substrate DABCYL-[…]-Glu(EDANS) NH2; (Dabcyl-4-((4-(dimethylamino)phenyl)azo)benzoic acid; Edans-5-[(2-Aminoethyl) amino]naphthalene-1-sulfonyl; custom synthesis by Jerini Peptide Technologies, Berlin) in the reaction buffer. The microtiter plate was incubated for 60-120 min at the temperature of 32 C.

The target of test [2] is Mannan-binding lectin serine protease 2 (Rattus norvegicus, UniProt Q9JJS8). Kind of test: Biochemical Rat MASP2 Assay. How it is done:
1 μl of the inhibitor compound solution (dissolved in DMSO, at the corresponding concentration) or pure DMSO as a control was added to the same wells. The enzymatic reaction was initiated by addition of 25 μl of 30 μM solution of the FRET substrate Abz-IEGRTSED-(Lys)Dnp-NH2; (ABZ-2-aminobenzoyl; DNP-2,4-dinitrophenyl; custom synthesis by Jerini Peptide Technologies, Berlin) in the reaction buffer. The microtiter plate was incubated for 60-120 min at the temperature of 32 C. The increase of fluorescence intensity was measured in appropriate fluorescence plate reader (e.g. TECAN Ultra) using excitation wavelength of 320 nm and emission wavelength of 420 nm. IC50 values were calculated from percentage of inhibition of rat […] activity as a function of test compound concentration.

Test [3] has as its target T1, Mannan-binding lectin serine protease 1 (Homo sapiens, UniProt P48740).
T1 sequence (P48740 whole entry): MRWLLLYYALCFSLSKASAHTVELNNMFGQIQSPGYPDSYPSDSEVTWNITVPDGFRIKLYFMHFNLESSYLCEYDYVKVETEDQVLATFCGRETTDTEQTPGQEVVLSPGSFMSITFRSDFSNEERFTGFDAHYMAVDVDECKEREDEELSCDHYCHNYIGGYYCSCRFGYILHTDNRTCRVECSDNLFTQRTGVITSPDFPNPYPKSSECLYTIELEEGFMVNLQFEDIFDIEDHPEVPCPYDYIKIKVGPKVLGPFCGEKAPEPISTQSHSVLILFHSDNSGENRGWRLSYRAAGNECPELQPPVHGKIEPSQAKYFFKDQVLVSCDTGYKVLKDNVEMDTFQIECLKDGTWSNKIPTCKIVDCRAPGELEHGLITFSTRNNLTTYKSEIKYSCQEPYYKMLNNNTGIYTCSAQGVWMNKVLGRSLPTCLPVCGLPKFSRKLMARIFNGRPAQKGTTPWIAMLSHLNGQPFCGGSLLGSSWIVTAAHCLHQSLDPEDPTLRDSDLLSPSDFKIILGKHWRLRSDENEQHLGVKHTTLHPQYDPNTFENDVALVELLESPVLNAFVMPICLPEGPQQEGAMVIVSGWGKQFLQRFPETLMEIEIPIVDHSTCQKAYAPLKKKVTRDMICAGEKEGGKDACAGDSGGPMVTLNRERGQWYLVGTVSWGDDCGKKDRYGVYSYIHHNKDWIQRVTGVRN
The test is described as follows: Biochemical Human MASP1 Assay. As to the method:
Recombinant human MASP1 enzyme produced in the HEK 293 cells was diluted in the reaction buffer (50 mM HEPES pH 8,0; 100 mM NaCl; 0,01% CHAPS; 0.5 mM Gluthathione) to the concentration of 20 nM and 25 μl was transferred into each single well of 384-well white microtiter plate (Greiner Bio One 781075). 1 μl of the inhibitor compound solution (dissolved in DMSO, at the corresponding concentration) or pure DMSO as a control was added to the same wells. The enzymatic reaction was initiated by addition of 25 μl of 20 μM solution of the FRET substrate ABZ-[…]-Lys (Dnp)-NH2; (ABZ-2-aminobenzoyl; DNP 2,4-dinitrophenyl; custom synthesis by Jerini Peptide Technologies, Berlin) in the reaction buffer. The microtiter plate was incubated for 60-120 min at the temperature of 32 C. The increase of fluorescence intensity was measured in appropriate fluorescence plate reader (e.g. TECAN Ultra) using excitation wavelength of 320 nm and emission wavelength of 420 nm. IC50 values were calculated from percentage of inhibition of human MASP1 activity as a function of test compound concentration.

Test [4] deals with T2, Mannan-binding lectin serine protease 1 (Rattus norvegicus, UniProt Q8CHN8).
T2 sequence (Q8CHN8 whole entry): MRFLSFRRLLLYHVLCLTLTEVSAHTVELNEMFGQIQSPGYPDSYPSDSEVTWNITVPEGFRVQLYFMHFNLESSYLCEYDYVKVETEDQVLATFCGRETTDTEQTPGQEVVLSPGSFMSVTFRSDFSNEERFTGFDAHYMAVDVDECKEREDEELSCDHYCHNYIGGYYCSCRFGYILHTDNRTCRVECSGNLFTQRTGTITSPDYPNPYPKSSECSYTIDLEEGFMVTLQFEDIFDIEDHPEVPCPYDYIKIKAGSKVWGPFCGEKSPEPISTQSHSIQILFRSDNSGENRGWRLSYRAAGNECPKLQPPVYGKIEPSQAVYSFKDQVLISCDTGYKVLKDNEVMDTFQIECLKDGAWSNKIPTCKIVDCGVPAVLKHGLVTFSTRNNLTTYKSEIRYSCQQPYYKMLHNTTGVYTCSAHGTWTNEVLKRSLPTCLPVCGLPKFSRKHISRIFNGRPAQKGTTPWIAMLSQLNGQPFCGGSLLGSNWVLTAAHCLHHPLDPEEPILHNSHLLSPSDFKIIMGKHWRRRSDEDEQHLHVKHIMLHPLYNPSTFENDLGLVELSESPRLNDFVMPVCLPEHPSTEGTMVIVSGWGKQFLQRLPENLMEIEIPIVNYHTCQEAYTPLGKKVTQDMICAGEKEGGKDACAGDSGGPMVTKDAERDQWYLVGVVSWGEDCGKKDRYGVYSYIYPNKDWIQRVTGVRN
The test is described as follows: Biochemical Rat MASP1 Assay. As to the method:
Recombinant […] produced in the HEK 293 cells was diluted in the reaction buffer (50 mM HEPES pH 8,0; 100 mM NaCl; 0,01% CHAPS; 0.5 mM Gluthathione) to the concentration of 4 nM and 25 μl was transferred into each single well of 384-well white microtiter plate (Greiner Bio One 781075). 1 μl of the inhibitor compound solution (dissolved in DMSO, at the corresponding concentration) or pure DMSO as a control was added to the same wells. The enzymatic reaction was initiated by addition of 25 μl of 40 μM solution of the FRET substrate Dabcyl-[…]-Glu(Edans)-NH2; (Dabcyl-4-((4-(dimethylamino)phenyl)azo)benzoic acid; Edans-5-[(2-Aminoethyl) amino]naphthalene-1-sulfonyl; custom synthesis by Jerini Peptide Technologies, Berlin) in the reaction buffer. The microtiter plate was incubated for 60-120 min at the temperature of 32 C. The increase of fluorescence intensity was measured in appropriate fluorescence plate reader (e.g. TECAN Ultra) using excitation wavelength of 340 nm and emission wavelength of 490 nm. IC50 values were calculated from percentage of inhibition of rat […] activity as a function of test compound concentration.

Molecules are shown by their SMILES. Where a SMILES comes first, the peptide text is derived from it. Bridges are numbered along the chain shown (N, C = ends). [ ]: non-standard residue; d: D form. Oic = O=C(O)[C@@H]1C[C@@H]2CCCC[C@@H]2N1; Pen = CC(C)(S)[C@H](N)C(=O)O

Chain of Mannan-binding lectin serine protease 2 (Homo sapiens, UniProt O00187) (O00187 16-444 limits assumed): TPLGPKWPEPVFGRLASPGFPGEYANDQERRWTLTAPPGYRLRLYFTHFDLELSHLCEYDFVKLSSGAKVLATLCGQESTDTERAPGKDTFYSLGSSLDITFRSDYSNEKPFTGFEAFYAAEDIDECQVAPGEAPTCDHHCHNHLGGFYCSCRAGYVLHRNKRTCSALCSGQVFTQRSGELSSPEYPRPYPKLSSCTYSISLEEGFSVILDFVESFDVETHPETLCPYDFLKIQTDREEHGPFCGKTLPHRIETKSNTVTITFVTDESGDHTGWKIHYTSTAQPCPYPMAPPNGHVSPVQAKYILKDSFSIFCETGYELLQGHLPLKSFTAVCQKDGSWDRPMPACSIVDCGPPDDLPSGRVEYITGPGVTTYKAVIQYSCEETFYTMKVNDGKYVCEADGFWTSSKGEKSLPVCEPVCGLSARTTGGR
Chain of Mannan-binding lectin serine protease 2 (Homo sapiens, UniProt O00187) (O00187 445-686 limits assumed): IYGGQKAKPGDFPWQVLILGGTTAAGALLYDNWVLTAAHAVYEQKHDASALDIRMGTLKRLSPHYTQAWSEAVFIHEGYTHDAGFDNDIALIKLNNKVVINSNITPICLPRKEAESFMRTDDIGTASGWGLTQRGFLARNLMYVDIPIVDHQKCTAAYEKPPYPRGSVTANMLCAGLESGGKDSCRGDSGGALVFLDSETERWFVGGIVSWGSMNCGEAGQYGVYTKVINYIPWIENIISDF
Chain of Mannan-binding lectin serine protease 2 (Rattus norvegicus, UniProt Q9JJS8) (Q9JJS8 20-443 limits assumed): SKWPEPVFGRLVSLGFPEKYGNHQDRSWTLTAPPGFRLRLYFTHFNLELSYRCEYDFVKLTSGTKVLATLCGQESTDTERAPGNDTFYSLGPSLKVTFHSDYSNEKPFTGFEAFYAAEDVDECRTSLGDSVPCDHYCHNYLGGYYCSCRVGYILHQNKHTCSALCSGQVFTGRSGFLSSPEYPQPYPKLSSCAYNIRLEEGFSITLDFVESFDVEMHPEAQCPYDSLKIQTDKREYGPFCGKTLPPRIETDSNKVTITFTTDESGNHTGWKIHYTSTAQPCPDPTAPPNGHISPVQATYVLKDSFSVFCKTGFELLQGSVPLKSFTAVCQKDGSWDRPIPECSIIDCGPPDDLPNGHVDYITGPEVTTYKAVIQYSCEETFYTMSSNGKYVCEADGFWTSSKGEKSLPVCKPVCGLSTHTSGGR
Chain of Mannan-binding lectin serine protease 2 (Rattus norvegicus, UniProt Q9JJS8) (Q9JJS8 444-685 limits assumed): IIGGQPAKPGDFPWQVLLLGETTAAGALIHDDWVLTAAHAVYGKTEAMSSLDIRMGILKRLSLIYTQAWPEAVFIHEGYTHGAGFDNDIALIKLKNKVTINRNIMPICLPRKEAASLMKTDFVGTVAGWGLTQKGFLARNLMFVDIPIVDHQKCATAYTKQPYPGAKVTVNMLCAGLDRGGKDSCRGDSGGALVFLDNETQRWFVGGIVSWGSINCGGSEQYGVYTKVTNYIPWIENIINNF

With `CC[C@H](C)[C@@H]1NC(=O)[C@@H]2CCCN2C(=O)[C@@H]2CCCN2C(=O)[C@H]([C@@H](C)CC)NC(=O)[C@H](CO)NC(=O)[C@H](CCCCN)NC(=O)[C@H]([C@@H](C)O)NC(=O)[C@@H]2CSSC[C@H](NC1=O)C(=O)N[C@@H](Cc1ccccc1)C(=O)N1CCC[C@H]1C(=O)N[C@@H](CC(=O)O)C(=O)NCC(=O)N[C@@H](CCCNC(=N)N)C(=O)N2` [US20240010684, Ref. No 2], the IC50 in test [1] was more than 3 µM; in test [2] it was 1 µM; in test [3], more than 3 µM.

Regarding `CC[C@H](C)[C@@H]1NC(=O)CNC(=O)CNC(=O)[C@H](C)NC(=O)[C@H](CC(=O)O)NC(=O)[C@@H]2CCCN2C(=O)[C@H]([C@@H](C)CC)NC(=O)[C@H]2NC(=O)[C@H]([C@@H](C)CC)NC(=O)[C@@H]3C[C@@H]4CCCC[C@@H]4N3C(=O)[C@@H]3CCCN3C(=O)[C@H](CC(C)C)NC(=O)[C@H](CO)NC(=O)[C@H](CCCNC(=N)N)NC(=O)[C@H](CO)NC(=O)[C@H](CSSC2(C)C)NC1=O` [US20240010684, Ex. No 92] (cyclo(AGGICSRSLP[Oic]I[Pen]IPD); disulfide 5-13), the 50% inhibitory concentration (IC50) worked out at 0.077 µM in test [1], 0.041 µM in test [2], 0.17 µM in test [4] and 0.0084 µM in test [3].

On to `CC[C@H](C)[C@@H]1NC(=O)CNC(=O)CNC(=O)[C@H](C)NC(=O)[C@@H](CC(=O)O)NC(=O)[C@@H]2CCCN2C(=O)[C@H]([C@@H](C)CC)NC(=O)[C@H]2NC(=O)[C@H]([C@@H](C)CC)NC(=O)[C@@H]3C[C@@H]4CCCC[C@@H]4N3C(=O)[C@@H]3CCCN3C(=O)[C@H](CC(C)C)NC(=O)[C@H](CO)NC(=O)[C@H](CCCNC(=N)N)NC(=O)[C@H](CO)NC(=O)[C@H](CSSC2(C)C)NC1=O` [US20240010684, Ex. No 98] (cyclo(AGGICSRSLP[Oic]I[Pen]IP[dD]); disulfide 5-13), for which the half-maximal inhibitory concentration (IC50) in test [1] turned out to be 0.16 µM; in test [4], 0.17 µM; in test [3] it was 0.019 µM.
